Data: patent US20130090471A1, “METHOD FOR DETECTING COMPOUNDS THAT MODULATE THE CHOLESTEROL METABOLISM” (priority 2010, published 2013)
Positions of bridges follow the written chain, without caps; N, C: chain ends. Non-standard residues stand in square brackets, D forms with d. Residues, ends and D or L forms follow the SMILES beside them. *: point of attachment. Asp(3S-OH) = N[C@H](C(=O)O)[C@H](O)C(=O)O; Thr(4-Cl) = N[C@H](C(=O)O)[C@H](O)CCl; X1 = CCCCCCCCC[C@@H](O)CC(=O)*; dDab = NCC[C@@H](N)C(=O)O; Dab = NCC[C@H](N)C(=O)O; Dhb = C/C=C(\N)C(=O)O

What was measured:
Type in all cases: cell-based, Saccharomyces cerevisae
[1] = system: yIM126-pIM580-CYP27A1 yeast; test: Test for restoration of growth on a YPG agar containing syringomycin E inoculated with a cholesterol-producing strain; conditions: syringomycin E 250 ng/ml, 48 h to 72 h at 30° C.
Description: The yIM126 yeasts containing the expression plasmids for DHCR24 with or without P450 are cultured in YNB medium, 2% glucose, adenine at 100 μg/ml for 48 h at 30° C. and then in Käppeli medium for 24 h at 30° C. as described above.
(§1) The yeast suspensions are diluted to an optical density at 600 nm of 0.005 unit ( 1/200) in YNB medium in order to inoculate a YPG agar containing syringomycin E at a dose that is toxic for the strain, i.e. 160 ng/ml for yIM126 containing the pIM582 plasmid, or 250 ng/ml for the yIM126 strain containing the pIM580 plasmid.
The inoculation of the agar medium is carried out by flooding its surface and immediately suctioning off the excess liquid. Products of interest are deposited on the agar surface thus inoculated, and then dried. […] Similarly, this method makes it possible to identify activators of enzymes, such as cytochromes P450, for instance CYP27A1, which catabolize cholesterol.
FIG. 7: Test for restoration of growth on a YPG agar containing syringomycin E inoculated with a cholesterol-producing strain.
The surface of a YPG agar medium containing syringomycin E at 250 ng/ml is inoculated with a covering of yIM126-pIM580-CYP27A1 yeast suspension. […]

[2] = system: yIM126 containing the pIM582 plasmid (without P450); test: Growth of yeasts on YPG agar containing syringomycin E
Description: (§2) This culture medium is a rich medium of YPG agar type (YPG complete medium: yeast extract (Difco) 10 g/L, bactopeptone (Difco) 20 g/L, glucose (Merck) 20 g/L) supplemented with syringomycin E toxin from Pseudomonas syringae B-301D (Sigma #S6946) from 150 to 250 ng/ml.
(§3) The yIM126 yeast strains containing an expression vector for DHCR24 and cytochrome P450 such as pIM580, described previously, are cultured for 48 h with shaking at 30° C. in a YNB medium (yeast nitrogen base w/o amino acids (Difco) 6.7 g/L, glucose (Merck) 20 g/L) supplemented with 2% glucose and adenine at 100 μg/ml.
(§4) The culture reaches an optical density at 600 nm of about 7 units. The cell pellet is harvested by centrifugation and transferred into an identical volume of Käppeli medium containing […], 2% glucose and 100 μg/ml of adenine, and shaken at 30° C. for 24 h, reaching an optical density at 600 nm of about 40 units.
(§5) The cultures are diluted to 1 unit of optical density at 600 nm and then to 1/50 and then 25-fold dilutions in order to perform a drop test on YPG agars containing syringomycin E according to the methods known to those skilled in the art.
(§6) The toxicity of this YPG medium containing syringomycin E depends on the amount of cholesterol available in the yeast, observed by GC/FID or GC/MS.
as §1
(§7) FIG. 6: Test for growth of various strains producing and/or catabolizing cholesterol on a YPG agar containing syringomycin E (SRG): Yeast culture dilutions deposited on a YPG agar without syringomycin E(6A) or with syringomycin E at 170 ng/ml (6B); Dilution OD at 600 nm from top to bottom: 0.02/0.0008/[…].

[3] = system: yIM126 strain containing the pIM580 plasmid (with CYP27A1); test: as above
Description: as §2, §3, §4, §5, §6, §1, §7

[4] = 2 μl of product at 0.1 mg/ml deposited
[5] = 2 μl of product at 1 mM deposited
[6] = YPG agar, inoculated at OD 600 nm 0.005
[7] = syringomycin E at 170 ng/ml, 48 h to 72 h at 30° C.

In the case of `C[C@@H](CO)CCC[C@@H](C)[C@H]1CC[C@H]2[C@@H]3CC=C4C[C@@H](O)CC[C@]4(C)[C@H]3CC[C@]12C` [27OH-cholesterol], the “area of protection with respect to the toxicity of the syringomycin E contained in the agar” value [1, 4] is reported as “induces an area of protection”.

For `Clc1ccccc1CNCC1CCC(CNCc2ccccc2Cl)CC1` (stereo not drawn) [AY9944], the “restoration of growth (yeast growth halos around the deposits) on medium which is initially toxic” value (“restoration of growth” for short) [1, 5] was “verified”.

With `CCN(C/C=C\c1ccc(C2CCCCC2)c(Cl)c1)C1CCCCC1` [SR31747] the “restoration of growth” value [1, 5] was “verified”.

In the case of `CCC(C)(C)c1ccc(CC(C)CN2C[C@@H](C)O[C@@H](C)C2)cc1` (stereo partly drawn) [amorolfine], the “restoration of growth” value [1, 4] is reported as “verified”.

In the case of `CC(C)CCC[C@@H](C)[C@H]1CC[C@H]2[C@@H]3CC=C4C[C@@H](O)CC[C@]4(C)[C@H]3CC[C@]12C` [cholesterol], the “area of protection with respect to the toxicity of the syringomycin E contained in the agar” value [1, 4] is reported as “induces an area of protection”.

With `C/C=C1\NC(=O)[C@H](Cc2ccccc2)NC(=O)[C@H](CCCN=C(N)N)NC(=O)[C@@H](CCN)NC(=O)[C@H](CCN)NC(=O)[C@@H](CO)NC(=O)[C@@H](NC(=O)C[C@H](O)CCCCCCCCC)COC(=O)[C@H]([C@H](O)CCl)NC(=O)[C@H]([C@H](O)C(=O)O)NC1=O` [syringomycin E] (X1-S[dS][Dab][dDab]RF[Dhb][Asp(3S-OH)][Thr(4-Cl)]; ester 1-C) the “dose that is toxic for the strain” value [2, 6] was 160 ng/mL, the “growth of the yeasts in drop test” value [2, 7] was “not capable of growing” and the “dose that is toxic for the strain” value [3, 6] was 250 ng/mL. The “growth of the yeasts in drop test” value [3, 7] was “capable of growing”.
